Measurements as given in PMC3158827 (ACS chemical biology, 2011).
Non-standard residues stand in square brackets, D forms with d. No end group written: not given here.

Tests used:
[1] = biological target: plasma kallikrein; details: cited from earlier work
[2] = biological target: thrombin; details: cited from earlier work
[3] = tested on: thrombin; details: cited from earlier work; remark: listed apart in the source
[4] = tested on: chymotrypsin; test: chymotrypsin; details: 37°C, up to 120 minutes
[5] = tested on: trypsin; details: cited from earlier work

## Ecallantide
[1]
  Ki: 0.044 nM

## bivalirudin
[2]
  Ki: 2 nM
[3]
  association rate constant: 4e+08 M⁻¹ s⁻¹
  dissociation rate: 0.8 s⁻¹

## GGSCIDGGRLMCGGS
[4]
  cleaved bond: methionine-C

## [dF]PRP
[2]; concentrations up to 10 µM
  thrombin inhibition: does not significantly inhibit thrombin

## ω-conotoxin MVIIa
[5]
  degradation by trypsin: degraded
